Source: patent US20240190821A1, “SULFONAMIDE SUBSTITUTED N-(1H-INDOL-7-YL)BENZENESULFONAMIDES AND USES THEREOF” (Triana Biomedicines, Inc., priority 2021, published 2024)
Where two headings read alike, the source gives them in different places.

Assays:
[1] = biological target: T1, DCAF15-RBM39 ternary complex (Homo sapiens, UniProt Q14498+Q66K64); assay: Compound-induced DCAF15-RBM39 ternary complex formation, AlphaLISA; format: biochemical
T1 construct: (RRM2)
Method: Compound-induced DCAF15-RBM39 ternary complex formation was monitored using AlphaLISA® assays (Perkin Elmer, Waltham, MA). […] 9.8 ul of this protein mixture was then mixed with the compounds in the assay plate and incubated for one hour at room temperature. Reaction mixtures with no compounds added were included as negative controls, while a His-tagged and biotinylated GST protein was included to track general assay performance. […] The beads were then added to the assay plate sequentially with incubation at room temperature for 1-2 hours after each addition.

[2] = biological target: DCAF15 (Homo sapiens, UniProt Q66K64); assay: Binary interaction between compounds and DCAF15, HTRF competition assay; format: binding
Chain of DCAF15 (Q66K64 whole entry): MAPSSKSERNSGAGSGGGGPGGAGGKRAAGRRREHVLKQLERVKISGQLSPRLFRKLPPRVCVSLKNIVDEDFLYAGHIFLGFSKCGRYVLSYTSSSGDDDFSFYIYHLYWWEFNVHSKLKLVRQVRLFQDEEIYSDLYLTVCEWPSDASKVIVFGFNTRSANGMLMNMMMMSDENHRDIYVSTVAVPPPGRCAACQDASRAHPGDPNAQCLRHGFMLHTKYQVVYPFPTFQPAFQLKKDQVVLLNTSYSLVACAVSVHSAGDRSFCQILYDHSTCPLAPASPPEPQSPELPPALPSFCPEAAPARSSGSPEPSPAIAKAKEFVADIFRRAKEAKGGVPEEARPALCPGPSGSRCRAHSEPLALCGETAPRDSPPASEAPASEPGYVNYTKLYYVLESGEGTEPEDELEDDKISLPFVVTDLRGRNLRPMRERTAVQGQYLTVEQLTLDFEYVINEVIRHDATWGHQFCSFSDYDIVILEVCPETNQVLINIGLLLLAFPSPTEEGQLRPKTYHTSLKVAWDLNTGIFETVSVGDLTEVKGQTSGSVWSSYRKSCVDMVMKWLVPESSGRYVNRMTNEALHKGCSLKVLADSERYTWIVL
Chain of DCAF15 (Q16531 whole entry partner): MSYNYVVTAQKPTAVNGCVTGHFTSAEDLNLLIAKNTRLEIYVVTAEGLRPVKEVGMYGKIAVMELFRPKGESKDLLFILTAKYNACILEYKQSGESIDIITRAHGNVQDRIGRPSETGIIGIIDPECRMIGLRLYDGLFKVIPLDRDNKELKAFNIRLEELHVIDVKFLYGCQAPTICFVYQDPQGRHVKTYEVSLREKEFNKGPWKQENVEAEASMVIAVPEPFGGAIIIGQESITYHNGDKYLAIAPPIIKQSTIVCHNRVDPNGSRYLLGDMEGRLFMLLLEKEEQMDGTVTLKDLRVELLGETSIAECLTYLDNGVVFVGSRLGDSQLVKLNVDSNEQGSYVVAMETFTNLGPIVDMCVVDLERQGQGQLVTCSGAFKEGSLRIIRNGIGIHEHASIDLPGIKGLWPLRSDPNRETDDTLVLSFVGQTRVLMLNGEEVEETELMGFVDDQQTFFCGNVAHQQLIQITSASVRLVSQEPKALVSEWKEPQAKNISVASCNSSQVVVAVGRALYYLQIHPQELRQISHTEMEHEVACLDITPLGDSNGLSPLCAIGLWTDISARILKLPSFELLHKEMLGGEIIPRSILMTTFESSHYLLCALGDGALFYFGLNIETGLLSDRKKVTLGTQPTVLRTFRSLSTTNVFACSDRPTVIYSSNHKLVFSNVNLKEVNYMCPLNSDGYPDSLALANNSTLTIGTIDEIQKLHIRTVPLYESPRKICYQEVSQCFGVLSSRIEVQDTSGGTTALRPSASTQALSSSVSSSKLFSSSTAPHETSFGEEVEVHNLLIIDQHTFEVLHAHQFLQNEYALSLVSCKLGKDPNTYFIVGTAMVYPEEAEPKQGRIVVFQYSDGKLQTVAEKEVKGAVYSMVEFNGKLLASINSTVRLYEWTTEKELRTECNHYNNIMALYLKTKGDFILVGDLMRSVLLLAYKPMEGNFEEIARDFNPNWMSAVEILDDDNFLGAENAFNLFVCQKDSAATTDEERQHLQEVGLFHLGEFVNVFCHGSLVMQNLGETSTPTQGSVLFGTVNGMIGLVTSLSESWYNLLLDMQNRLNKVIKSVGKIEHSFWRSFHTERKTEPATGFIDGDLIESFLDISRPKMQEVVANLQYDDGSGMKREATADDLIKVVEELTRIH
Method: DCAF15 interactions with test compounds were monitored using HTRF competition assays (Cisbio, Bedford, MA). […] These two solutions were mixed and incubated for 15 min at room temperature. 9.8 ul of the tracer solution and 10 ul of the DCAF15/mAb Anti-6His-Eu cryptate Gold mixture were added sequentially to each well in the assay plate. Reaction mixtures with no DCAF15 added were included as […] controls. […] Binding was estimated based on ratiometric analysis and titration curves were generated in GraphPad Prism (7.00, GraphPad, La Jolla, CA).

[3] = AlphaLISA, His-tagged DCAF15 complex and biotin-carrying RBM39, read-out: Ternary-RBM39 (RRM2) EC50
[4] = HTRF competition with Alexa Fluor 647 tracer, His-tagged DCAF15 complex, read-out: DCAF15 IC50

T1 sequence (Q66K64 whole entry): as the sequence (Q66K64 whole entry) above
T1 sequence (Q14498 250-328 limits assumed): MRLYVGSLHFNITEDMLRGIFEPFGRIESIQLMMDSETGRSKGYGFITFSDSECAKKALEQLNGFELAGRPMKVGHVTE
T1 sequence (Q16531 whole entry partner): as the sequence (Q16531 whole entry partner) above

SMILES | EC50 [1, 3] [µM] | IC50 [2, 4] [µM] | EC50 [1] [µM] | IC50 [2] [µM]
O=S(=O)(NCC1CCN(CCCc2ccccc2)CC1)c1ccc(S(=O)(=O)Nc2ccc(Cl)c3c(Cl)c[nH]c23)cc1 [Compound 10, N^1-(3,4-dichloro-1H-indol-7-yl)-N^4-((1-(3-phenylpropyl)piperidin-4-yl)methyl)benzene-1,4-disulfonamide] | < 1 | < 5 |  | 
CN(C)C(=O)CC(NS(=O)(=O)c1ccc(S(=O)(=O)Nc2ccc(Cl)c3c(Cl)c[nH]c23)cc1)c1ccccc1 (stereo not shown) [Compound 11, 3-((4-(N-(3,4-dichloro-1H-indol-7-yl)sulfamoyl)phenyl)sulfonamido)-N,N-dimethyl-3-phenylpropanamide] | < 20 | < 5 |  | 
CC(C)C(=O)Nc1cccc(CNS(=O)(=O)c2ccc(S(=O)(=O)Nc3ccc(Cl)c4c(Cl)c[nH]c34)cc2)c1 [Compound 13, N-(3-(((4-(N-(3,4-dichloro-1H-indol-7-yl)sulfamoyl)phenyl)sulfonamido)methyl)phenyl) isobutyramide] | < 20 | < 20 |  | 
CCC(NS(=O)(=O)c1ccc(S(=O)(=O)Nc2ccc(Cl)c3c(Cl)c[nH]c23)cc1)c1ccc2c(c1)OCCO2 (stereo not shown) [Compound 14, N1-(3,4-dichloro-1H-indol-7-yl)-N^4-(1-(2,3-dihydrobenzo[b][1, 4]dioxin-6-yl)propyl)benzene-1,4-disulfonamide] | < 20 | < 20 |  | 
Cc1cc(CNS(=O)(=O)c2ccc(S(=O)(=O)Nc3ccc(Cl)c4c(Cl)c[nH]c34)cc2)nn1C [Compound 15, N^1-(3,4-dichloro-1H-indol-7-y1)-N^4-((1,5-dimethyl-1H-pyrazol-3-yl)methyl)benzene-1,4-disulfonamide] | < 20 | < 5 |  | 
Cc1ccnc(CNS(=O)(=O)c2ccc(S(=O)(=O)Nc3ccc(Cl)c4c(Cl)c[nH]c34)cc2)c1 [Compound 16, N^1-(3,4-dichloro-1H-indol-7-yl)-N^4-((4-methylpyridin-2-yl)methyl)benzene-1,4-disulfonamide] | < 20 | < 5 |  | 
COc1cccc(Oc2ccc(CNS(=O)(=O)c3ccc(S(=O)(=O)Nc4ccc(Cl)c5c(Cl)c[nH]c45)cc3)cn2)c1 [Compound 17, N^1-(3,4-dichloro-1H-indol-7-yl)-N^4-((6-(3-methoxyphenoxy)pyridin-3-yl)methyl)benzene-1,4-disulfonamide] | < 20 | < 20 |  | 
Cc1ccnc(C(NS(=O)(=O)c2ccc(S(=O)(=O)Nc3ccc(Cl)c4c(Cl)c[nH]c34)cc2)C2CC2)c1 (stereo not shown) [Compound 18, N^1-(cyclopropyl(4-methylpyridin-2-yl)methyl)-N^4-(3,4-dichloro-1H-indol-7-yl)benzene-1,4-disulfonamide] | < 5 | < 20 |  | 
Cc1cnc(CNS(=O)(=O)c2ccc(S(=O)(=O)Nc3ccc(Cl)c4c(Cl)c[nH]c34)cc2)cn1 [Compound 19, N^1-(3,4-dichloro-1H-indol-7-yl)-N4_ ((5-methylpyrazin-2-yl)methyl)benzene-1,4-disulfonamide] | < 1 | < 5 |  | 
CCc1nc(CN(C)S(=O)(=O)c2ccc(S(=O)(=O)Nc3ccc(Cl)c4c(Cl)c[nH]c34)cc2)no1 [Compound 20, N^1-(3,4-dichloro-1H-indol-7-yl)-N^4-((5-ethyl-1,2,4-oxadiazol-3-yl)methyl)-N4. methylbenzene-1,4-disulfonamide] | < 5 | < 5 |  | 
CN1CC(CCNS(=O)(=O)c2ccc(S(=O)(=O)Nc3ccc(Cl)c4c(Cl)c[nH]c34)cc2)C1 [Compound 22, N^1-(3,4-dichloro-1H-indol-7-y1)-N^4-(2-(1-methylazetidin-3-yl)ethyl)benzene-1,4-disulfonamide] | < 1 | < 5 |  | 
CN(C)C(=O)c1ccc(CCNS(=O)(=O)c2ccc(S(=O)(=O)Nc3ccc(Cl)c4c(Cl)c[nH]c34)cc2)cc1 [Compound 23, 4-(2-((4-(N-(3,4-dichloro-1H-indol-7-yl)sulfamoyl)pheny 1)sulfonamido)ethyl)-N,N-dimethylbenzamide] | < 5 | < 20 |  | 
Cc1ccc(CCNS(=O)(=O)c2ccc(S(=O)(=O)Nc3ccc(Cl)c4c(Cl)c[nH]c34)cc2)o1 [Compound 25, N^1-(3,4-dichloro-1H-indol-7-yl)-N4_ (2-(5-methylfuran-2-yl)ethyl)benzene-1,4-disulfonamide] | < 20 | < 20 |  | 
O=C(CCCNS(=O)(=O)c1ccc(S(=O)(=O)Nc2ccc(Cl)c3c(Cl)c[nH]c23)cc1)N1CCCC1 [Compound 27, N^1-(3,4-dichloro-1H-indol-7-yl)-N^4-(4-oxo-4-(pyrrolidin-1-yl)butyl)benzene-1,4-disulfonamide] | < 1 | < 5 |  | 
O=S(=O)(Nc1ccc(Cl)c2c(Cl)c[nH]c12)c1ccc(S(=O)(=O)NC2CCOCC2)cc1 [Compound 28, N^1-(3,4-dichloro-1H-indol-7-yl)-N^4-(tetrahydro-2H-pyran-4-yl)benzene-1,4-disulfonamide] | < 1 | < 100 |  | 
CCCN(C1CCNCC1)S(=O)(=O)c1ccc(S(=O)(=O)Nc2ccc(Cl)c3c(Cl)c[nH]c23)cc1 [Compound 30, N^1-(3,4-dichloro-1H-indol-7-yl)-N^4-(piperidin-4-yl)-N^4-propylbenzene-1,4-disulfonamide] | < 1 | < 5 |  | 
O=C1CCC(NS(=O)(=O)c2ccc(S(=O)(=O)Nc3ccc(Cl)c4c(Cl)c[nH]c34)cc2)CN1 (stereo not shown) [Compound 31, N^1-(3,4-dichloro-1H-indol-7-yl)-N^4-(6-oxopiperidin-3-yl)benzene-1,4-disulfonamide] | < 1 | < 5 |  | 
CN1CC(NS(=O)(=O)c2ccc(S(=O)(=O)Nc3ccc(Cl)c4c(Cl)c[nH]c34)cc2)CCC1=O (stereo not shown) [Compound 32, N^1-(3,4-dichloro-1H-indol-7-yl)-N^4-(1-methyl-6-oxopiperidin-3-yl)benzene-1,4-disulfonamide] | < 1 | < 5 |  | 
O=C1NCCCCC1NS(=O)(=O)c1ccc(S(=O)(=O)Nc2ccc(Cl)c3c(Cl)c[nH]c23)cc1 (stereo not shown) [Compound 33, N^1-(3,4-dichloro-1H-indol-7-yl)-N^4-(2-oxoazepan-3-yl)benzene-1,4-disulfonamide] | < 1 | < 5 |  | 
O=S(=O)(Nc1ccc(Cl)c2c(Cl)c[nH]c12)c1ccc(S(=O)(=O)N2CCC(n3ccnn3)C2)cc1 (stereo not shown) [Compound 36, 4-((3-(1H-1,2,3-triazol-1-yl)pyrrolidin-1-yl)sulfonyl)-N-(3,4-dichloro-1H-indol-7-yl)benzenesulfonamide] | < 5 | < 5 |  | 
O=S(=O)(Nc1ccc(Cl)c2c(Cl)c[nH]c12)c1ccc(S(=O)(=O)N2CCC(O)CC2)cc1 [Compound 38, N-(3,4-dichloro-1H-indol-7-yl)-4-((4-hydroxypiperidin-1-yl)sulfonyl)benzene sulfonamide] | < 1 | < 5 |  | 
O=S(=O)(Nc1ccc(Cl)c2c(Cl)c[nH]c12)c1ccc(S(=O)(=O)N2CCC(Oc3cccnc3)CC2)cc1 [Compound 39, N-(3,4-dichloro-1H-indol-7-yl)-4-((4-(pyridin-3-yloxy)piperidin-1-yl)sulfonyl)benzene sulfonamide] | < 5 | < 20 |  | 
N#Cc1cc(S(=O)(=O)Nc2ccc(Cl)c3c(Cl)c[nH]c23)ccc1S(=O)(=O)N1CCNCC1 [Compound 43, 3-cyano-N-(3,4-dichloro-1H-indol-7-yl)-4-(piperazin-1-ylsulfonyl)benzenesulfonamide] | < 1 | < 5 |  | 
O=S(=O)(Nc1ccc(Cl)c2c(Cl)c[nH]c12)c1ccc(S(=O)(=O)N2CCNCC2)cc1F [Compound 44, N-(3,4-dichloro-1H-indol-7-yl)-2-fluoro-4-(piperazin-1-ylsulfonyl)benzenesulfonamide] | < 1 | < 5 |  | 
O=S(=O)(Nc1ccc(Cl)c2c(Cl)c[nH]c12)c1ccc(S(=O)(=O)N2CCNCC2)c(F)c1 [Compound 45, N-(3,4-dichloro-1H-indol-7-yl)-3-fluoro-4-(piperazin-1-ylsulfonyl)benzenesulfonamide] | < 1 | < 5 |  | 
CCCC1CNCCN1S(=O)(=O)c1ccc(S(=O)(=O)Nc2ccc(Cl)c3c(Cl)c[nH]c23)cc1 (stereo not shown) [Compound 47, N-(3,4-dichloro-1H-indol-7-yl)-4-((2-propylpiperazin-1-yl)sulfonyl)benzenesulfonamide] | < 1 | < 5 |  | 
O=S(=O)(Nc1ccc(Cl)c2c(Cl)c[nH]c12)c1ccc(S(=O)(=O)N2CCN(CCOCCc3ccccn3)CC2)cc1 [Compound 51, N-(3,4-dichloro-1H-indol-7-yl)-4-((4-(2-(2-(pyridin-2-yl)ethoxy)ethyl)piperazin-1-yl)sulfonyl)benzenesulfonamide] |  |  | < 1 | < 20
O=S(=O)(Nc1ccc(Cl)c2c(Cl)c[nH]c12)c1ccc(S(=O)(=O)N2CCCNCC2)cc1 [Compound 52, 4-((1,4-diazepan-1-yl)sulfonyl)-N-(3,4-dichloro-1H-indol-7-yl)benzene sulfonamide] | < 1 | < 5 |  | 
Cc1nc2c(n1C)CCN(S(=O)(=O)c1ccc(S(=O)(=O)Nc3ccc(Cl)c4c(Cl)c[nH]c34)cc1)C2 [Compound 53, N-(3,4-dichloro-1H-indol-7-yl)-4-((1,2-dimethyl-1,4,6,7-tetrahydro-5H-imidazo[4,5-c]pyridin-5-yl)sulfonyl)benzene sulfonamide] | < 5 | < 5 |  | 
